From US20250295634A1, “USE OF ANTIANDROGENS TO TREAT SEPSIS” (Rhode Island Hospital, priority 2024, published 2025)
Where two headings read alike, the source gives them in different places.

Columns and labels:
[1] = test system: COVID-19; details: cited from earlier work
[2] = test system: COVID-19; details: at five days of therapy; cited from earlier work
[3] = in vivo; cited from earlier work
[4] = test system: COVID-19; details: men with diagnosis of AGA, outpatient setting; cited from earlier work
[5] = test system: angiotensin converting enzyme 2 (ACE2); details: in men; cited from earlier work
[6] = test system: TMPRSS2; details: in men; cited from earlier work
[7] = test system: TMPRSS2; details: cited from earlier work
[8] = test system: COVID-19; details: cited from earlier work; remark: listed apart in the source
[9] = test system: COVID-19; details: inventors' reading of Welén et al.; the authors report no evidence of benefit; cited from earlier work
[10] = test system: sepsis; details: fecal peritonitis model; cited from earlier work
[11] = test system: COVID-19; details: cited from earlier work; remark: listed apart in the source
[12] = test system: COVID-19; details: men, proxalutamide 200 mg for up to seven days; cited from earlier work
[13] = test system: ACE2; details: cited from earlier work
[14] = test system: COVID-19; details: patients with severe lung involvement; cited from earlier work
[15] = test system: COVID-19; assay: Clinical trial of proxalutamide in hospitalized COVID-19 patients in Brazil (NCT04728802); format: in vivo, human; details: initiated in patients that don't require supplemental O2
[16] = test system: COVID-19; details: single case; case report later retracted; cited from earlier work
[17] = target: T1, androgen receptor (Homo sapiens, UniProt P10275); details: clinical evidence; cited from earlier work
T1 sequence (P10275 1-920): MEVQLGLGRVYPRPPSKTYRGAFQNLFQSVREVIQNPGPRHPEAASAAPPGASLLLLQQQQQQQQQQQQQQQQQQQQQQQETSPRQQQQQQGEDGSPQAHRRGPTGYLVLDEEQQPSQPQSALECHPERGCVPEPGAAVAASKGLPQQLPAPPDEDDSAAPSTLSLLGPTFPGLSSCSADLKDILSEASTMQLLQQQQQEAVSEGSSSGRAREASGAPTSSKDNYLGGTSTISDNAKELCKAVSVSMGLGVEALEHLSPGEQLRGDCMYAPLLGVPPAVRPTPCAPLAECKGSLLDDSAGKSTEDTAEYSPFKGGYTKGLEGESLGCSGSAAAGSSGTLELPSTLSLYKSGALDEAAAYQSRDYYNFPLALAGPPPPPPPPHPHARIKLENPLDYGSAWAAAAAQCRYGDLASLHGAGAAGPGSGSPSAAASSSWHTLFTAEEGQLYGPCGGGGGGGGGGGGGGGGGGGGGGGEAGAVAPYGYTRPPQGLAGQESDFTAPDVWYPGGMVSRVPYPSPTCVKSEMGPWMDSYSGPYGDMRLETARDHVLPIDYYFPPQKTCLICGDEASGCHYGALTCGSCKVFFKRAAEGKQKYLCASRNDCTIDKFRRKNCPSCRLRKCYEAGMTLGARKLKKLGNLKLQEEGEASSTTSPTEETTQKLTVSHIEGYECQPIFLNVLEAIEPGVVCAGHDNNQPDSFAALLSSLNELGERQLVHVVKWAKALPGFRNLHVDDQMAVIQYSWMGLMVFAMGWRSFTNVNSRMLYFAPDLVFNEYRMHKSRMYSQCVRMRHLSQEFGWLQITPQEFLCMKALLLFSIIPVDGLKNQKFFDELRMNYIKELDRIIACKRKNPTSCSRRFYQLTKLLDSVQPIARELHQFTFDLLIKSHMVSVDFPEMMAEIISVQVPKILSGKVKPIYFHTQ

C[C@]12CCC(=O)C=C1C=C[C@@H]1[C@@H]2CC[C@@]2(C)[C@H]1CC[C@@]21CCC(=O)O1 [Canrenone]
fatalities ([1]; intensive care observational series of cases with hypertension or hypokalemia): associated with reduced fatalities

CC(C)(C)NC(=O)[C@H]1CC[C@H]2[C@@H]3CC[C@H]4NC(=O)C=C[C@]4(C)[C@H]3CC[C@]12C [Finasteride]
peripheral capillary oxygen saturation [2]: clinically and statistically significant improvement
half-life [3]: six

C[C@]12CCC(=O)C=C1C=C[C@@H]1[C@@H]2CC[C@@]2(C)[C@H]1CC[C@@]2(O)CCC(=O)O [Potassium canrenoate]
all-cause mortality ([1]; severe COVID patients): proven to reduce all-cause mortality

C[C@]12C=CC(=O)N[C@@H]1CC[C@@H]1[C@@H]2CC[C@]2(C)[C@@H](C(=O)Nc3cc(C(F)(F)F)ccc3C(F)(F)F)CC[C@@H]12 [dutasteride]
symptomatic COVID-19 disease [4]: less symptomatic COVID-19 disease
expression of ACE2 [5]: decrease the expression
half-life [3]: five
expression of TMPRSS2 [6]: decrease the expression

CNC(=O)c1ccc(N2C(=S)N(c3ccc(C#N)c(C(F)(F)F)c3)C(=O)C2(C)C)cc1F [enzalutamide]
TMPRSS2 regulation [7]: significantly downregulated TMPRSS2
mortality, subgroup analysis ([8]; human, in vivo): significantly reduce mortality
half-life [3]: 140 h
effect on hospitalized COVID-19 patients [9]: positive effects

COCCCC/C(=N\OCCN)c1ccc(C(F)(F)F)cc1 [fluvoxamine]
anti-sepsis activity [10]: anti-sepsis activity

CC1(C)C(=O)N(c2ccc(C#N)c(C(F)(F)F)c2F)C(=S)N1c1ccc(CCCc2ncco2)nc1 [proxalutamide]
mortality in COVID-19 patients ([11]; data from Brazil, both arms using corticosteroids): dramatic impact of proxalutamide in reducing mortality
lung opacities compared to placebo ([11]; hospitalized COVID-19 patients): improves lung opacities
30-day hospitalization rate [12]: about 2%
reduction of the risk of hospitalization compared to usual care [12]: more than 90%
expression of ACE2 [13]: lowers the expression of ACE2
benefit vs standard-of-care which includes steroids [14]: showed benefit
mortality, subgroup analysis ([8]; meta-analysis of RCTs): significantly reduce mortality
survival [15]: no difference in survival
symptom resolution and laboratory improvement [16]: striking symptom resolution and laboratory improvement within twenty-four hours
androgen receptor expression and activity [17]: lowers androgen receptor expression and activity

CC(=O)S[C@@H]1CC2=CC(=O)CC[C@]2(C)[C@H]2CC[C@@]3(C)[C@@H](CC[C@@]34CCC(=O)O4)[C@H]12 [spironolactone]
expression of ACE2 [5]: decrease the expression
expression of TMPRSS2 [6]: decrease the expression
